Reference: US20080076147A1, “BIOFILM SAMPLING DEVICE” (BOARD OF TRUSTEES OF SOUTHERN ILLINOIS UNIVERSITY, priority 2006, published 2008)

Tests used:
Experiment in all cases: Biocide kill of planktonic cells and biofilm on vascular catheter (serum flow model)
Type in all cases: cell-based
Enterococcus faecalis = conditions: serum, 5 to 60 minutes
[1] = system: Stenotrophomonas maltophilia; conditions: 5 to 60 minutes
From the text: (§1) A system as shown in FIG. 6 was used in this study. Serum and a biocide were placed in sealed bottles as the first fluid source 505 and the second fluid source 509, respectively. The fluid sources were connected to a pump 515 by conventional IV tubing. A second pump 531 was used to deliver the fluid mixture to the vascular catheter 3 positioned in the sampling apparatus 1.
(§2) Initially, only the first fluid source, serum inoculated with Acinetobacter baumanii (10×10^9 CFU/ml), was used to contaminate the catheter with planktonic cells. The inoculated fluid continuously flowed through IV tubing directly through the catheter for […] to form a layer of planktonic cells on the catheter. Fluid flow was then stopped and the tubing was then reconfigured as shown in FIG. 6 so that the second fluid source could be introduced. In these test runs, the first fluid source was inoculated with the same concentration of bacteria, and the second fluid source was a biocide (16-16,000 ppm) selected from hydrogen peroxide (H2O2), sodium hypochlorite (SHC), peracetic acid (PAA) and gluteraldehyde (GLT). The fluid mixture continuously flowed through the catheter for 5, 10, 15, 30, 45 or 60 minutes before fluid flow was discontinued to determine bacterial resistance of the planktonic cells on the catheter. In all, six runs were completed for each of four different biocides. After each run, the test catheter was then cut aseptically into 1 cm segments. The segments were transferred to test tubes containing one ml saline and the adherent cells were dislodged by sonication in an aquasonic device, vortexed for about one minute, and then counted on Tropic soya Agar. The number of viable cells were determined for each catheter and were compared to the number of viable cells in control samples (i.e., biocide-free serum) to calculate the biocide concentration required to kill 50% of the bacteria in the biofilm at the same time interval. Instead of saline, other appropriate buffer solutions can be used. In addition to plating cells on agar and counting the number of colonies, the amount of biofilm formed can be determined by a semiquantitive microtiter plate method. For example, adherent cells can be dislodged from test catheters as described above. The aliquots of solutions containing the cells from each catheter piece can then be added separately to wells of a 96-well tissue culture plate and incubated at 37° C. for 24 h. After several (e.g., three) washes with PBS, any remaining biofilm is stained with safranin O dye for 1 min and washed with PBS again. Optical density at 492 nm is determined with a 96-well plate spectrometer reader. For each time point, an aliquot without biocide is a positive control. Percent inhibition of biofilm accumulation can be determined from the formula (A492positive−A492biocide)/(A492positive−A492)×100%, Such plating methods are well known to one skilled in the art and could be modified as desired for analysis of the biofilm.
(§3) For determination of the bacterial resistance of the biofilm formed on the catheter, the method described above was repeated using the same conditions except that the inoculated fluid continuously flowed through the catheter for two hours before fluid flow was discontinued to form a biofilm on the catheter.
The experiment was repeated as described above, except that Stenotrophomonas maltophilia (1×10^9 CFU/ml) was used to inoculate the serum.

Acinetobacter baumanii = conditions: biofilm on vascular catheter, 5 to 60 minutes, FIG. 10B
From the text: as §1
Initially, only the first fluid source, serum inoculated with Acinetobacter baumanii (10×10^9 CFU/ml), was used to contaminate the catheter with planktonic cells. The inoculated fluid continuously flowed through IV tubing directly through the catheter for […] to form a layer of planktonic cells on the catheter. […] The segments were transferred to test tubes containing one ml saline and the adherent cells were dislodged by sonication in an aquasonic device, vortexed for about one minute, and then counted on Tropic soya Agar. The number of viable cells were determined for each catheter and were compared to the number of viable cells in control samples (i.e., biocide-free serum) to calculate the biocide concentration required to kill 50% of the bacteria in the biofilm at the same time interval. […] In addition to plating cells on agar and counting the number of colonies, the amount of biofilm formed can be determined by a semiquantitive microtiter plate method. […]

[2] = system: methicillin resistant Staphylococcus aureus (MRSA); conditions: biofilm on vascular catheter, 5 to 60 minutes, FIG. 14B
Burkholderia cepacia = conditions: 5 to 60 minutes
From the text: as §1, §2, §3
The experiment was repeated as described above, except that Burkholderia cepacia (1×10^9 CFU/ml) was used to inoculate the serum.

Escherichia coli = conditions: biofilm on vascular catheter, over all time periods (5 to 60 minutes), FIG. 12B
Staphylococcus epidermis = conditions: 5 to 60 minutes
From the text: as §1, §2, §3
The experiment was repeated as described above, except that Staphylococcus epidermis (1×10^9 CFU/ml) was used to inoculate the serum.

Pseudomonas aeruginosa = conditions: 5 to 60 minutes
From the text: as §1, §2, §3
The experiment was repeated as described above, except that Pseudomonas aeruginosa (1×10^9 CFU/ml) was used to inoculate the serum.

SMILES: CC(=O)OO [PAA, peracetic acid]
- biofilm kill (biocide concentration required to kill 50% of bacteria that grew in the biofilm) (Enterococcus faecalis; biofilm on vascular catheter, FIG. 13B): most effective
- planktonic cell kill (biocide concentration required to kill 100% of bacteria present as planktonic cells) (Enterococcus faecalis; planktonic cells on vascular catheter, FIG. 13A): most effective
- biofilm kill (biocide concentration required to kill 50% of bacteria that grew in the biofilm) ([1]; biofilm on vascular catheter, FIG. 17B): most effective
- planktonic cell kill (biocide concentration required to kill 100% of bacteria present as planktonic cells) ([1]; planktonic cells on vascular catheter, FIG. 17A): GLT was somewhat more effective in killing planktonic cells as compared to SHC or PAA
- biofilm kill (biocide concentration required to kill 50% of bacteria that grew in the biofilm) (Acinetobacter baumanii): most effective
- biofilm kill (biocide concentration required to kill 50% of bacteria that grew in the biofilm) [2]: most effective
- biofilm kill (biocide concentration required to kill 50% of bacteria that grew in the biofilm) (Burkholderia cepacia; biofilm on vascular catheter, FIG. 11B): most effective
- planktonic cell kill (biocide concentration required to kill 100% of bacteria present as planktonic cells) (Burkholderia cepacia; planktonic cells on vascular catheter, FIG. 11A): performed comparably and were more effective than hydrogen peroxide
- biofilm kill (biocide concentration required to kill 50% of bacteria that grew in the biofilm) (Escherichia coli): most effective
- biofilm kill (biocide concentration required to kill 50% of bacteria that grew in the biofilm) (Staphylococcus epidermis; biofilm on vascular catheter, FIG. 15B): most effective
- planktonic cell kill (biocide concentration required to kill 100% of bacteria present as planktonic cells) (Staphylococcus epidermis; planktonic cells on vascular catheter, FIG. 15A): performed similarly in planktonic cell kill and outperformed hydrogen peroxide
- biofilm kill (biocide concentration required to kill 50% of bacteria that grew in the biofilm) (Pseudomonas aeruginosa; biofilm on vascular catheter, FIG. 16B): most effective
- planktonic cell kill (biocide concentration required to kill 100% of bacteria present as planktonic cells) (Pseudomonas aeruginosa; planktonic cells on vascular catheter, FIG. 16A): performed comparably and were more effective than hydrogen peroxide and SHC
